Results reported in the supplement of paper PMC10627819.

Legend:
[1] = test system: S. aureus Newman; test: fitness (endpoint OD595 vs no drug) (fraction); higher = more growth
Summary of the method: (§1)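 Volumes were 30 µl per well, or 55 µl for S. pneumoniae, in 384-well plates inoculated at OD595 0.01. Media were TSB, LB Lennox or CY at 37 °C, and OD595 was read every 30 min for 14 h with first-reading background subtraction. Fitness is the ratio of optical density at stationary-phase entry to the robust mean of no-drug controls. That ratio is capped at 1.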

[2] = test system: S. pneumoniae D39V; test: as above
Summary of the method: as §1

[3] = test system: B. subtilis 168; test: Bliss interaction score (quartile over a dose matrix) (fitness difference); higher = more antagonism (negative = synergy)
Summary of the method: (§2)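 Fitness here means normalised growth, inferred for single drugs from the combination data. Growth was OD595 at entry into stationary phase, divided by the plate's robust no-drug mean and capped at 1. The Bliss score is observed minus expected fitness, with the expectation being the product, and its quartiles span technical, biological and donor/recipient replicates.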

[4] = test system: S. aureus DSM 20231; test: as above
Summary of the method: as §2

[5] = test system: S. aureus Newman; test: as above
Summary of the method: as §2

[6] = test system: S. pneumoniae D39V; test: as above
Summary of the method: as §2

[7] = test system: B. subtilis 168; test: fitness (endpoint OD595 vs no drug) (fraction); higher = more growth
Summary of the method: as §1

[8] = test system: S. aureus DSM 20231; test: as above
Summary of the method: as §1
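Wherever Bliss interaction score (quartile over a dose matrix) is given: first quartile when negative (synergy) and third quartile when positive (antagonism).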

CC1(C)S[C@@H]2[C@H](NC(=O)[C@H](N)c3ccc(O)cc3)C(=O)N2[C@H]1C(=O)O [Amoxicillin] + CN(C)c1cc(NC(=O)CNC(C)(C)C)c(O)c2c1C[C@H]1C[C@H]3[C@H](N(C)C)C(O)=C(C(N)=O)C(=O)[C@@]3(O)C(O)=C1C2=O [Tigecycline]
Settings | fitness
[1], first compound 0.0625 µg/mL, partner 0.039 µg/mL | 0.892
[1], first compound 0.0625 µg/mL, partner 0.078 µg/mL | 0.903
[1], first compound 0.0625 µg/mL, partner 0.156 µg/mL | 0.884
[1], first compound 0.125 µg/mL, partner 0.039 µg/mL | 0.875
[1], first compound 0.125 µg/mL, partner 0.078 µg/mL | 0.922
[1], first compound 0.125 µg/mL, partner 0.156 µg/mL | 0.862
[1], first compound 0.25 µg/mL, partner 0.039 µg/mL | 0.799
[1], first compound 0.25 µg/mL, partner 0.078 µg/mL | 0.867
[1], first compound 0.25 µg/mL, partner 0.156 µg/mL | 0.817
[2], first compound 0.0008 µg/mL, partner 0.65 µg/mL | 0.928
[2], first compound 0.0008 µg/mL, partner 1.3 µg/mL | ≥ 1
[2], first compound 0.0008 µg/mL, partner 2.6 µg/mL | 0.968
[2], first compound 0.0015 µg/mL, partner 0.325 µg/mL | 0.941
[2], first compound 0.0015 µg/mL, partner 0.65 µg/mL | 0.942
[2], first compound 0.0015 µg/mL, partner 1.3 µg/mL | 0.994
[2], first compound 0.0015 µg/mL, partner 2.6 µg/mL | 0.956
[2], first compound 0.003 µg/mL, partner 0.325 µg/mL | 0.904
[2], first compound 0.003 µg/mL, partner 0.65 µg/mL | 0.921
[2], first compound 0.003 µg/mL, partner 1.3 µg/mL | 0.944
[2], first compound 0.003 µg/mL, partner 2.6 µg/mL | 0.877

fitness, [2], one replicate
Settings | partner 0.325 µg/mL | partner 0.65 µg/mL | partner 1.3 µg/mL
first compound 0.0008 µg/mL | 0.969 | – | –
first compound 0.006 µg/mL | 0.386 | 0.449 | 0.458

Settings | Bliss interaction score
[3] | -0.0604
[4] | -0.0322
[5] | 0.0642
[6] | 0.0424

CO/N=C(\C(=O)N[C@@H]1C(=O)N2C(C(=O)[O-])=C(C[N+]3(C)CCCC3)CS[C@H]12)c1csc(N)n1 [Cefepime] + CC1=C(C(=O)O)N2C(=O)[C@@H](NC(=O)[C@H](N)c3ccccc3)[C@H]2SC1 [Cephalexin]
fitness
Settings | first compound 0.007 µg/mL | first compound 0.014 µg/mL | first compound 0.028 µg/mL | first compound 0.125 µg/mL | first compound 0.25 µg/mL | first compound 0.5 µg/mL
[1], partner 0.25 µg/mL | – | – | – | 0.941 | 0.876 | 0.843
[1], partner 0.5 µg/mL | – | – | – | 0.939 | 0.867 | 0.8
[1], partner 1 µg/mL | – | – | – | 0.969 | 0.922 | 0.861
[2], partner 1 µg/mL | 0.93 | 0.923 | 0.584 | – | – | –
[2], partner 2 µg/mL | 0.101 | 0.0733 | 0.0074 | – | – | –
[2], partner 4 µg/mL | 0.0209 | 0.0355 | 0.015 | – | – | –

fitness, [2], one replicate
Settings | first compound 0.0078 µg/mL | first compound 0.0155 µg/mL | first compound 0.031 µg/mL
partner 0.125 µg/mL | ≥ 1 | 0.94 | 0.434
partner 0.25 µg/mL | 0.988 | 0.96 | 0.529
partner 0.5 µg/mL | ≥ 1 | 0.925 | 0.297

Settings | Bliss interaction score
[3] | 0.0474
[4] | 0.0619
[5] | -0.0529
[6] | -0.105

CC1(C)S[C@@H]2[C@H](NC(=O)[C@H](N)c3ccc(O)cc3)C(=O)N2[C@H]1C(=O)O [Amoxicillin] + CN[C@@H]1[C@H](O[C@H]2[C@H](O[C@H]3[C@H](O)[C@@H](O)[C@H](N=C(N)N)[C@@H](O)[C@@H]3N=C(N)N)O[C@@H](C)[C@]2(O)C=O)O[C@@H](CO)[C@H](O)[C@H]1O [Streptomycin]
fitness
Settings | first compound 0.0008 µg/mL | first compound 0.0015 µg/mL | first compound 0.003 µg/mL | first compound 0.0625 µg/mL | first compound 0.125 µg/mL | first compound 0.25 µg/mL
[1], partner 1 µg/mL | – | – | – | 0.857 | 0.856 | 0.845
[1], partner 2 µg/mL | – | – | – | 0.823 | 0.792 | 0.798
[2], partner 2 µg/mL | 0.979 | 0.931 | 0.899 | – | – | –
[2], partner 4 µg/mL | 0.947 | 0.877 | 0.866 | – | – | –
[2], partner 8 µg/mL | 0.968 | 0.929 | 0.895 | – | – | –

one replicate
Settings | fitness
[1], first compound 0.0625 µg/mL, partner 8 µg/mL | 0.0265
[1], first compound 0.125 µg/mL, partner 8 µg/mL | 0.0373
[1], first compound 0.25 µg/mL, partner 8 µg/mL | 0.0414
[2], first compound 0.0008 µg/mL, partner 16 µg/mL | 0.807
[2], first compound 0.0015 µg/mL, partner 16 µg/mL | 0.749
[2], first compound 0.003 µg/mL, partner 16 µg/mL | 0.724
[2], first compound 0.006 µg/mL, partner 2 µg/mL | 0.488
[2], first compound 0.006 µg/mL, partner 4 µg/mL | 0.413
[2], first compound 0.006 µg/mL, partner 8 µg/mL | 0.274

Settings | Bliss interaction score
[3] | -0.054
[4] | -0.0777
[5] | -0.0764
[6] | 0.0594

CCN(CC)CCOC(=O)c1ccc(N)cc1 [Procaine] + COc1cc(Cc2cnc(N)nc2N)cc(OC)c1OC [Trimethoprim]
fitness, [7], one replicate
Settings | partner 0.1 µg/mL | partner 0.125 µg/mL | partner 0.2 µg/mL | partner 0.4 µg/mL | partner 1 µg/mL | partner 2 µg/mL
first compound 85.5 µg/mL | 0.877 | 0.771 | 0.722 | 0.555 | 0.393 | 0.277
first compound 171 µg/mL | 0.836 | 0.775 | 0.783 | 0.544 | 0.444 | 0.295
first compound 342 µg/mL | 0.83 | 0.742 | 0.832 | 0.555 | 0.37 | 0.383

fitness
Settings | first compound 85.5 µg/mL | first compound 171 µg/mL | first compound 342 µg/mL
[7], partner 0.25 µg/mL | 0.704 | 0.688 | 0.69
[7], partner 0.5 µg/mL | 0.531 | 0.562 | 0.498
[8], partner 0.125 µg/mL | 0.669 | 0.744 | 0.709
[8], partner 0.25 µg/mL | 0.565 | 0.607 | 0.613
[8], partner 0.5 µg/mL | 0.118 | 0.123 | 0.144
[8], partner 1 µg/mL | 0.0274 | 0.0353 | 0.021

Settings | Bliss interaction score
[3] | 0.0837
[4] | -0.0543
[5] | 0.0842
[6] | 0.0954

CC1(C)S[C@@H]2[C@H](NC(=O)[C@H](N)c3ccc(O)cc3)C(=O)N2[C@H]1C(=O)O [Amoxicillin] + C/C(=C\C(=O)OCCCCCCCCC(=O)O)C[C@@H]1OC[C@H](C[C@@H]2O[C@H]2[C@@H](C)[C@H](C)O)[C@@H](O)[C@H]1O [Pseudomonic acid]
fitness, one replicate
Settings | partner 0.03 µg/mL | partner 0.0313 µg/mL | partner 0.06 µg/mL | partner 0.0625 µg/mL | partner 0.12 µg/mL | partner 0.125 µg/mL
[1], first compound 0.0625 µg/mL | – | 0.0402 | – | 0.0188 | – | 0.0414
[1], first compound 0.125 µg/mL | – | 0.0188 | – | 0.0167 | – | 0.0327
[1], first compound 0.25 µg/mL | – | 0.0112 | – | 0.0059 | – | 0.0163
[2], first compound 0.006 µg/mL | 0.577 | – | 0.64 | – | 0.283 | –

fitness, [2]
Settings | first compound 0.0008 µg/mL | first compound 0.0015 µg/mL | first compound 0.003 µg/mL
partner 0.03 µg/mL | 0.888 | 0.974 | 0.932
partner 0.06 µg/mL | 0.838 | 0.822 | 0.882
partner 0.12 µg/mL | 0.586 | 0.68 | –

Settings | Bliss interaction score
[3] | 0.0663
[4] | 0.0169
[5] | -0.031
[6] | 0.121
